The subject of one data set is HeLa. As to the kind of experiment: ATP-based viability loss in HeLa cells – cell-based, CellTiter-Glo luminescence, cherry-pick samples, cytotoxicity control for MITF activator project, dose response (AID 540259). The class given is functional. The settings on record: Homo sapiens. For orientation: In ATP-based viability assays light output follows the ATP content of the culture.

Data set [1] can be described thus: Luminescence Cell-Based Dose Response HTS to Identify Activators of Luciferase Translation or Activity in H4 […] Cells. [Related pubchem assays: 1829 (Project Summary), 1814 (Primary HTS)]. The class given is functional.
For data set [2], the target named is T1, Oxysterols receptor LXR-beta (Homo sapiens, UniProt P55055).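 Also: agonist activity at LXR measured by a cell-based luminescence readout across a dose range, run as a counterscreen for daf-12 agonists; HEK293 cells with Gal4-LXR fusion and GAL4-driven luciferase reporter; potency for activation of Gal4-LXR reporter so compounds are agonists.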
T1 sequence (P55055 whole entry): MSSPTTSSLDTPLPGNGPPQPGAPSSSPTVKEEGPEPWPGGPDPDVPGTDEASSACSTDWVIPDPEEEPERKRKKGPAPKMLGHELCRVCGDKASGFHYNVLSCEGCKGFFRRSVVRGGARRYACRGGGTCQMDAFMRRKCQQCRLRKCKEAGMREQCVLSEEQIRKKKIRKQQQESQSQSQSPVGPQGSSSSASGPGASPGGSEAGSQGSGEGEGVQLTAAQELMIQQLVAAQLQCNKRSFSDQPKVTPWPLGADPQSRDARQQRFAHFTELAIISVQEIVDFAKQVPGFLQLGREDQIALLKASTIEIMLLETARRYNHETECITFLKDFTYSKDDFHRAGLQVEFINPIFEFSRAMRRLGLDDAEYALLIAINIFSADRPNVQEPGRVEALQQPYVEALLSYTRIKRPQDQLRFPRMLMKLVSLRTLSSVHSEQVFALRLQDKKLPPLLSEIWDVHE
The class given is functional, cell-based.

The subject of data set [3] is Escherichia coli. As to the kind of experiment: microbe, parasite or virus in culture.
Data set [4] concerns Escherichia coli. As to the kind of experiment: microbe, parasite or virus in culture. The source holds these as a separate data set.
The target in data set [5] is T2, Sentrin-specific protease 6 (Homo sapiens, UniProt Q9GZR1).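 Also: Luminescence-based dose-response confirmatory assay of SENP6 inhibition, following up an ultra-high-throughput screen.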
T2 sequence (Q9GZR1 whole entry): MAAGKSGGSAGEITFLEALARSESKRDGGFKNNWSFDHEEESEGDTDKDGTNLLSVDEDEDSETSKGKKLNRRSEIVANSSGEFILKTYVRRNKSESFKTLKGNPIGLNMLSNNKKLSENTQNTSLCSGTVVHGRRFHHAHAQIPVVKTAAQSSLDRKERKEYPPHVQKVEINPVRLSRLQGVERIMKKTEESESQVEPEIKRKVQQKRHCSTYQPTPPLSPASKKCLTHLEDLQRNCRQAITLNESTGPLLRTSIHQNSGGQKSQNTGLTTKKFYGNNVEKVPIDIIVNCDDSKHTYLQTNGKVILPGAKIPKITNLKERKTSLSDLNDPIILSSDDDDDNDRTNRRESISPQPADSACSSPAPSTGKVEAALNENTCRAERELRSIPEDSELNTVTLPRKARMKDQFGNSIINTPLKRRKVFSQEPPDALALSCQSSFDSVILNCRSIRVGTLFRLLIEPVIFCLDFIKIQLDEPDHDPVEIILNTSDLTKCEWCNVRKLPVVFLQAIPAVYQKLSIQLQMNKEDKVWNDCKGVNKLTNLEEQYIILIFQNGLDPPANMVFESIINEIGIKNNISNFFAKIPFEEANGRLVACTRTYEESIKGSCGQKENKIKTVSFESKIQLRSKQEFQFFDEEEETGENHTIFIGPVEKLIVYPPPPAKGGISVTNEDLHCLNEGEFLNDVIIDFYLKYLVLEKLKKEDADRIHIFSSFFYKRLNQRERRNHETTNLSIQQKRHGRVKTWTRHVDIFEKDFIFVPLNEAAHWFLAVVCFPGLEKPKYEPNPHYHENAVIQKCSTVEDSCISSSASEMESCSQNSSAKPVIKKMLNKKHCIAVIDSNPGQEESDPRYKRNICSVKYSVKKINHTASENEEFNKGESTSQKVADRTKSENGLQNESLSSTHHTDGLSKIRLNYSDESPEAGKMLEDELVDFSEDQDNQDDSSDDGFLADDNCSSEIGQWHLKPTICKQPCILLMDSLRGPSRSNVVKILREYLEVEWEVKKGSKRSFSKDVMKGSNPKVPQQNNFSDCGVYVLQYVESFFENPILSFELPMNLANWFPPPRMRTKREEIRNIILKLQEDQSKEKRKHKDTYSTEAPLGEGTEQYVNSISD
The class given is functional.

The target in data set [6] is T3, Sentrin-specific protease 8 (Homo sapiens, UniProt Q96LD8).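 Also: luminescence read-out of SENP8 inhibition, dose-response confirmation following an ultra-high-throughput screen.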
T3 sequence (Q96LD8 whole entry): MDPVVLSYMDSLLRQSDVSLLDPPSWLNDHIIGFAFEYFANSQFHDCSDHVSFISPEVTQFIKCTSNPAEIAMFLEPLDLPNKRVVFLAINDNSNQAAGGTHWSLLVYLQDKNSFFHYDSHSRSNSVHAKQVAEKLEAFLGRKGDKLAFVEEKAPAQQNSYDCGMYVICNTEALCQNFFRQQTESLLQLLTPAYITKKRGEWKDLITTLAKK
The class given is functional.

Data set [7] addresses T4, Sentrin-specific protease 7 (Homo sapiens, UniProt Q9BQF6).
T4 sequence (Q9BQF6 whole entry): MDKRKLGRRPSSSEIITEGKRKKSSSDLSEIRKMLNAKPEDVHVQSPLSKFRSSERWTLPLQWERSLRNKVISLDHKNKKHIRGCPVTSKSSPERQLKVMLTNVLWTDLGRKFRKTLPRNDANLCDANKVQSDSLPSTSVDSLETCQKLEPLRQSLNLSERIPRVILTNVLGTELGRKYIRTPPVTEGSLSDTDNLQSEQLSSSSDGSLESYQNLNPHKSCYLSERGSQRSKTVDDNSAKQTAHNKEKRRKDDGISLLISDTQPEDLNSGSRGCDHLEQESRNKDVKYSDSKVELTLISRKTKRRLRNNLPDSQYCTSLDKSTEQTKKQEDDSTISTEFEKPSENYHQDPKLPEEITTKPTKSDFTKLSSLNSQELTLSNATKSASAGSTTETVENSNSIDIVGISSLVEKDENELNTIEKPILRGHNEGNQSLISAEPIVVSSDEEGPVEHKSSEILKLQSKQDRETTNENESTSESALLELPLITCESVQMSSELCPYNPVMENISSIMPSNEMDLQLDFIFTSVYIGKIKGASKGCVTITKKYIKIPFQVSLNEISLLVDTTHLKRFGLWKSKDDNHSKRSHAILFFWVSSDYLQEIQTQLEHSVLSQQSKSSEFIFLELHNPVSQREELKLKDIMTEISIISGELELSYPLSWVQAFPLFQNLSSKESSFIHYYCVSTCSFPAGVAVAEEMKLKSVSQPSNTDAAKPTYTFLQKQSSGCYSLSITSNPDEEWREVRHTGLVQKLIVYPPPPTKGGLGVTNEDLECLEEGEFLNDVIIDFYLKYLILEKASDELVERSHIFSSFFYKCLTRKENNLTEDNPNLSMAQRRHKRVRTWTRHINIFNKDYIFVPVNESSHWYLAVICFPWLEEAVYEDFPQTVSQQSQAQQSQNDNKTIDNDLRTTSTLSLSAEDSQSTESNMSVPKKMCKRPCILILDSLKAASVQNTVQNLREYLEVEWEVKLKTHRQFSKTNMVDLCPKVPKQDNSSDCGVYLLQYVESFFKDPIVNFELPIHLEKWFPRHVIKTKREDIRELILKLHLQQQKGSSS
The class given is functional.

For the next data set, the target named is T5, Caspase-3 (Homo sapiens, UniProt P42574).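 Also: Dose-response selectivity test against caspase-3 for candidate inhibitors of sentrin-specific proteases (SENPs).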
T5 sequence (P42574 whole entry): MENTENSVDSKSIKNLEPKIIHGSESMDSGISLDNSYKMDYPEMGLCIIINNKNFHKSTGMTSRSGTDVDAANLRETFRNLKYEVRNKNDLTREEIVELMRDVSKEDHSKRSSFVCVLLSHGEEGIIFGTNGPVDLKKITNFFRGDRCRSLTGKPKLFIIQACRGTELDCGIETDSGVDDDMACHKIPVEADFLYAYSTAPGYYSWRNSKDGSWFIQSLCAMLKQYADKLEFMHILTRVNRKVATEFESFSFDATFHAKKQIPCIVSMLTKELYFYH
The class given is functional.

The nature of data set [8]: viability of uninfected HEp-2 cells – cell-based, HTS, cytotoxicity control for RSV inhibitor project, dose response (AID 2410). The note with it: human respiratory syncytial virus. The class given is functional.
Data set [9] is described as follows: microbe, parasite or virus in culture. The class given is functional. The note with it: Mycobacterium tuberculosis.
In a further data set the target is Beta-galactosidase (Escherichia coli, UniProt Q8VNN2). As to the kind of experiment: PubChem AID 485352. The class given is functional.
Beta-galactosidase, sequence (Q8VNN2 whole entry): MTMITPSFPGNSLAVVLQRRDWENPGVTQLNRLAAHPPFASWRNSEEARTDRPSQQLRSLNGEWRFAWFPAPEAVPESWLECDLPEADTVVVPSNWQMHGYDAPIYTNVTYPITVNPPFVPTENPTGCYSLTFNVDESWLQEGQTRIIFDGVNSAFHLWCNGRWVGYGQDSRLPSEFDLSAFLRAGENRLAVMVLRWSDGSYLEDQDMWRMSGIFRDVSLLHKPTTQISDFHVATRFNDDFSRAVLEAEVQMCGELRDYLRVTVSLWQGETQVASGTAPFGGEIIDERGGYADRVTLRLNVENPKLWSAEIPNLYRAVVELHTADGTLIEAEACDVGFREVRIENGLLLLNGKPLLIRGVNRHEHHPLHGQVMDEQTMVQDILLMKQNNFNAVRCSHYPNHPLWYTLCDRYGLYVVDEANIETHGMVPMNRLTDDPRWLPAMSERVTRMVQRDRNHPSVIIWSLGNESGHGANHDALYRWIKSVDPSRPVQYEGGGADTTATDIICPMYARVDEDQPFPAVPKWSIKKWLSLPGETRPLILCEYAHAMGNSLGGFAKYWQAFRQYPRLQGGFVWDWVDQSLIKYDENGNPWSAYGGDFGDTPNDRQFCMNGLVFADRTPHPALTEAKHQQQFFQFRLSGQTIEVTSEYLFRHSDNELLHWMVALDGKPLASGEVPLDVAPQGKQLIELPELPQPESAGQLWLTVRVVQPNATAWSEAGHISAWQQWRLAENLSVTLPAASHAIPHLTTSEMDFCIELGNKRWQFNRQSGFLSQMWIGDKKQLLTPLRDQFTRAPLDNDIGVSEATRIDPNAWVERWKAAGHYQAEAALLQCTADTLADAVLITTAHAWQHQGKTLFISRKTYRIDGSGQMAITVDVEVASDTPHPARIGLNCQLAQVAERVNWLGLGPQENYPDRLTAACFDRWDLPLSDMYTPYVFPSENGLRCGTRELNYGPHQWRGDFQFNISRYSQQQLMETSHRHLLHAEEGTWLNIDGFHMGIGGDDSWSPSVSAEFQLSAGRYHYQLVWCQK
In data set [10] the target is Type-1 angiotensin II receptor (Homo sapiens, UniProt P30556). As to the kind of experiment: antagonism of angiotensin II type 1 receptor – cell-based, uHTS hits, selectivity assay for APJ receptor antagonist project, dose response (AID 463214).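 Also: antagonist potency against angiotensin II stimulated AT1 response.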 The class given is functional.
Type-1 angiotensin II receptor, sequence (P30556 whole entry): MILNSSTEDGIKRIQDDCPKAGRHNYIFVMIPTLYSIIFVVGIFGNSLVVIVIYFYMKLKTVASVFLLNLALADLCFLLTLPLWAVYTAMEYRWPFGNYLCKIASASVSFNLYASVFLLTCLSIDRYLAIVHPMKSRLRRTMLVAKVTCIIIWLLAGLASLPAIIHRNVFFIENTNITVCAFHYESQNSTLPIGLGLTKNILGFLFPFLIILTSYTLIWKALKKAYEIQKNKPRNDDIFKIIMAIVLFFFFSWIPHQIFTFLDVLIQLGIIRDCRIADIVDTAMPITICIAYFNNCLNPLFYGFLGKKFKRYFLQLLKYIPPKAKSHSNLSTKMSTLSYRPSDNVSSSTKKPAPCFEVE
Another data set deals with Genome polyprotein (dengue virus type 2, UniProt P29990). Put plainly: flavivirus cap methylation enzyme inhibition – biochemical, confirmation dose response, primary screen (AID 588689). The class given is functional.
Genome polyprotein, sequence (P29990 2492-3391 limits assumed): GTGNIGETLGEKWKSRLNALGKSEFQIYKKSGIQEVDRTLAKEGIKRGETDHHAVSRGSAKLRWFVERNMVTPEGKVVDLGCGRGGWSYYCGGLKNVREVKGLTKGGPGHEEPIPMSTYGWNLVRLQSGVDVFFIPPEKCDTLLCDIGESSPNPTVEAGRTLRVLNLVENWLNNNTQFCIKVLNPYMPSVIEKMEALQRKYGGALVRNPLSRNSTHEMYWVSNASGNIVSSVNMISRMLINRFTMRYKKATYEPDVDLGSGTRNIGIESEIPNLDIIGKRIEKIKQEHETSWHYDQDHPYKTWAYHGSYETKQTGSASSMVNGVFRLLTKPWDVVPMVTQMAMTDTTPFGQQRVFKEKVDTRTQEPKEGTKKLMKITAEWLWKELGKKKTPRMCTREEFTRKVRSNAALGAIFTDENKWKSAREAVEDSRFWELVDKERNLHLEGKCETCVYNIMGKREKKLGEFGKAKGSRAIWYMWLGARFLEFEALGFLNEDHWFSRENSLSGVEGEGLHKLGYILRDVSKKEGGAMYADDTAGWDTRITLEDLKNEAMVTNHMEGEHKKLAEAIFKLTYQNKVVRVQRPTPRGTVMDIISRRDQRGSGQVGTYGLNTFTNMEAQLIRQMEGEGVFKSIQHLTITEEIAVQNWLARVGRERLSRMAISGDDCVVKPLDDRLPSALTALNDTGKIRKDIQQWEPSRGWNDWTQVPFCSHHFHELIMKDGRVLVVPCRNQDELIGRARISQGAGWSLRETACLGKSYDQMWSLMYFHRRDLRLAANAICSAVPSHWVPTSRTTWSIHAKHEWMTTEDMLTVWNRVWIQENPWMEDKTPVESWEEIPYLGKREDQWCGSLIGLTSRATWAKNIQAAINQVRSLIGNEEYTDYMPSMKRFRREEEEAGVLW
The target in data set [11] is T6, Nuclear receptor subfamily 0 group B member 1 (Homo sapiens, UniProt P51843).
T6 sequence (P51843 whole entry): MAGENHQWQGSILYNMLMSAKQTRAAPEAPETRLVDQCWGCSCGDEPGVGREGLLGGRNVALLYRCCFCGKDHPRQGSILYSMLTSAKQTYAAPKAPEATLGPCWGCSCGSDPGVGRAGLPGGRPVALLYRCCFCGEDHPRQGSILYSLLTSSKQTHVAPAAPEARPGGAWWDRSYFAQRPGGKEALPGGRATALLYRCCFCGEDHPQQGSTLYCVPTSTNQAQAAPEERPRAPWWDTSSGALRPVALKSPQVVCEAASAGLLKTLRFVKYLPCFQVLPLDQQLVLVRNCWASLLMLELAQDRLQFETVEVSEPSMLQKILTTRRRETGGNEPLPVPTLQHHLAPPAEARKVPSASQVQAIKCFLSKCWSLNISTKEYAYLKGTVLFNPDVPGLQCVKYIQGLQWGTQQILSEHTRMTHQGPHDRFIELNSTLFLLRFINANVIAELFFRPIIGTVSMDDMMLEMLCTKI
Put plainly: Luminescence-based cell-based high throughput dose response assay for inhibitors of the orphan nuclear receptor subfamily 0, group B, member 1 (DAX1; NR0B1). [Related pubchem assays (depositor defined):AID504766, AID504790]. The class given is functional.

Another data set has as its system HEK293. Put plainly: cells. The class given is functional, cell-based. The settings on record: Homo sapiens.
Another data set concerns the target T7, Cytochrome P450 1A2 (Homo sapiens, UniProt P05177).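 Also: PubChem cytochrome P450 panel assay, CYP1A2 panel member.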
T7 sequence (P05177 whole entry): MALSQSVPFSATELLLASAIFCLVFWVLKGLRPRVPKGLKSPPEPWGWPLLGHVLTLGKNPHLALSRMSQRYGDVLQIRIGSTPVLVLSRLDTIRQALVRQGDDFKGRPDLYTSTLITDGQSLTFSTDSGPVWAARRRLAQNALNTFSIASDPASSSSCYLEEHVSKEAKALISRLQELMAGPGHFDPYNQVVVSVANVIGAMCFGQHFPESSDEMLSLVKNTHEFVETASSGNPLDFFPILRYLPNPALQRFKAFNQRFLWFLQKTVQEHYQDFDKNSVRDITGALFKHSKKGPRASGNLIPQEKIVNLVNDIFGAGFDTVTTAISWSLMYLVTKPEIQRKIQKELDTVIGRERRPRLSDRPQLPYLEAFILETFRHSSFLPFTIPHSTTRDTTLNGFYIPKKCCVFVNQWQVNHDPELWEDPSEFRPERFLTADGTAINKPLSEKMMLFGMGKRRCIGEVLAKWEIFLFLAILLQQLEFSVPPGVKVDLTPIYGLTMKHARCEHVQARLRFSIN

Another data set deals with Cytochrome P450 2D6 (Homo sapiens, UniProt P10635).
Cytochrome P450 2D6, sequence (P10635 whole entry): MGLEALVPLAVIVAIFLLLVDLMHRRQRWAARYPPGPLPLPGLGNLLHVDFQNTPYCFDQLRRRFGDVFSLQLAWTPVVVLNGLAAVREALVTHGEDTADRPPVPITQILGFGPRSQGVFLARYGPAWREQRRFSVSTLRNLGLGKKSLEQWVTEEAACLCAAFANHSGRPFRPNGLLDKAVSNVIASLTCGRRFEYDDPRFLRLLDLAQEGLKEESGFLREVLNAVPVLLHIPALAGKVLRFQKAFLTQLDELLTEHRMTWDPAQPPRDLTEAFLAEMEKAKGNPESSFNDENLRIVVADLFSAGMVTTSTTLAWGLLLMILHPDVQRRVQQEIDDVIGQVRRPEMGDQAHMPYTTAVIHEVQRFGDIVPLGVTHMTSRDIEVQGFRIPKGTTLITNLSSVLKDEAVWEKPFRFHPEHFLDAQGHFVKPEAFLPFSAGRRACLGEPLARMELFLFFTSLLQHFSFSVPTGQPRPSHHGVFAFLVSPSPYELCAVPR

Active and inactive are the calls of the source. A value given as a limit tells only on which side of the number the result lay.

The AC50 is the concentration at which the activity in the assay is half-maximal. `c1ccc2nc(-c3nccs3)ccc2c1`: the concentration at half-maximal activity (AC50) with HeLa is 57.5 µM (active).
As a reminder, the EC50 is the concentration that produces a half-maximal response. Take `COc1ccc(/C=C2\SC(=O)N(CCNC(=O)C3CC4C=CC3C4)C2=O)cc1` (stereo not drawn): the EC50 in data set [1] is 0.164 µM (active); in data set [2] it was > 67.5 µM (inactive). Moreover, the AC50 in the data set with Escherichia coli [3] was 23.7 µM (active); with Escherichia coli [4], > 380 µM (inactive).
For orientation: IC50 means the concentration needed to halve the response being measured. Consider `COc1cccc(NC(=O)c2csc3c2CCCC3)c1`, for which the half-maximal inhibitory concentration (IC50) in data set [5] is 15.5 µM (active); in [6], 18.9 µM (active); in [7], 5.17 µM (active); at Caspase-3, 19.2 µM (active). Besides, in the data set on HeLa, the AC50 was 49.7 µM (active). In [8], the CC50 was 32.5 µM (active).
Turning to `CCCc1ccc2oc(C(=O)N(C)Cc3nccs3)c(C)c2c1`, the AC50 with Escherichia coli [3] was 31.7 µM (active); with Escherichia coli [4], > 380 µM (inactive). The CC50 in [9] is 21.8 µM (active).
Regarding `Cc1cc(C(=O)OCC(=O)c2cccc([N+](=O)[O-])c2)c2ccccc2n1`, the EC50 at Beta-galactosidase was > 40 µM (inactive). Further, in data set [10], the half-maximal inhibitory concentration (IC50) is 17.4 µM (active).
As for `O=C1Nc2ccc(F)cc2C12Nc1ccccc1-c1nnc(SCc3ccccc3Cl)nc1O2` (stereo not drawn), the EC50 on Beta-galactosidase is > 40 µM (inactive). Moreover, the IC50 in data set [10] is 25.5 µM (not active); on Genome polyprotein, > 100 µM (active).
`Cc1ccc2[nH]c(/C(C#N)=C/c3ccccc3C(=O)O)nc2c1`: the IC50 (in [11]; in the data set on HEK293) was > 67.5 µM (inactive) throughout.
As to `O=C(O)[C@@H]1[C@@H](C(=O)O)[C@]23C[C@@]2(C(=O)O)[C@]2(C(=O)O)CCC3=C3CCCC312`, the values for the AC50 on Cytochrome P450 1A2 and at Cytochrome P450 2D6 were 2.51 µM (inconclusive) and “inconclusive”, respectively.

The record behind these values is ChEMBL document CHEMBL1201862, “PubChem BioAssay data set” (2004).
